From the supplement of paper PMC5908809

Columns and labels:
IMC-1 (IL-2 20 ng/mL) [1] = experiment: percent inhibition of viability; higher = more inhibition; settings: 72 h
YT (IL-2 2.5 ng/mL) [2] = experiment: as above; settings: 72 h
NK-92 (IL-2 2.5 ng/mL) [3] = experiment: as above; settings: 72 h
[4] = system: normal primary NK cells, pool 3 (3 donors) (IL-2 2.5 ng/mL); experiment: as above; settings: 72 h
DERL-7 (IL-2 2.5 ng/mL) [5] = experiment: as above; settings: 72 h
NK-YS (IL-2 2.5 ng/mL) [6] = experiment: as above; settings: 72 h
[7] = system: normal primary NK cells, pool 1 (3 donors), resting (IL-2 0 ng/mL); experiment: as above; settings: 72 h
SNK-6 (IL-2 2.5 ng/mL) [8] = experiment: as above; settings: 72 h
KHYG-1 (IL-2 2.5 ng/mL) [9] = experiment: as above; settings: 72 h
[10] = system: normal primary NK cells, pool 1 (3 donors) (IL-2 2.5 ng/mL); experiment: as above; settings: 72 h
[11] = system: normal primary NK cells, pool 2 (3 donors) (IL-2 2.5 ng/mL); experiment: as above; settings: 72 h
KAI3 (IL-2 2.5 ng/mL) [12] = experiment: as above; settings: 72 h
NKL (IL-2 2.5 ng/mL) [13] = experiment: as above; settings: 72 h
[14] = system: normal NK cells expanded with K562-aAPC; experiment: drug sensitivity score (DSS) (DSS units); higher = more sensitive; extreme values may be limits of the assay; settings: 72 h; IL-2 2.5 ng/mL
Description: (§1)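 Drug sensitivity and resistance testing on K562-aAPC-expanded normal NK cells: 5 concentrations (10-fold steps over a 10,000-fold range), 72 h at 37 °C, viability by CellTiter-Glo normalised to DMSO and benzethonium chloride controls; DSS from the fitted curve.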

IMC-1 (IL-2 20 ng/mL) [15] = experiment: as above; settings: 72 h
YT (IL-2 2.5 ng/mL) [16] = experiment: as above; settings: 72 h
NK-92 (IL-2 2.5 ng/mL) [17] = experiment: as above; settings: 72 h
[18] = system: normal primary NK cells, pool 3 (3 donors) (IL-2 2.5 ng/mL); experiment: as above; settings: 72 h
DERL-7 (IL-2 2.5 ng/mL) [19] = experiment: as above; settings: 72 h
NK-YS (IL-2 2.5 ng/mL) [20] = experiment: as above; settings: 72 h
[21] = system: normal primary NK cells, pool 1 (3 donors), resting (IL-2 0 ng/mL); experiment: as above; settings: 72 h
SNK-6 (IL-2 2.5 ng/mL) [22] = experiment: as above; settings: 72 h
KHYG-1 (IL-2 2.5 ng/mL) [23] = experiment: as above; settings: 72 h
[24] = system: normal primary NK cells, pool 1 (3 donors) (IL-2 2.5 ng/mL); experiment: as above; settings: 72 h
[25] = system: normal primary NK cells, pool 2 (3 donors) (IL-2 2.5 ng/mL); experiment: as above; settings: 72 h
KAI3 (IL-2 2.5 ng/mL) [26] = experiment: as above; settings: 72 h
NKL (IL-2 2.5 ng/mL) [27] = experiment: as above; settings: 72 h
[28] = system: normal NK cells expanded with K562-aAPC; experiment: percent inhibition of viability; higher = more inhibition; settings: 72 h, IL-2 2.5 ng/mL
Description: as §1

O=C(O)CNC(=O)c1c(O)c2ccccc2n(Cc2ccccc2)c1=O [IOX-2] (max concentration tested 50000 nM)
percent inhibition of viability [%]
Settings | 5 nM | 50 nM | 500 nM | 5000 nM | 50000 nM
DERL-7 (IL-2 2.5 ng/mL) [5] | -0.5 | 5.58 | 5.28 | -4.63 | 25.8
IMC-1 (IL-2 20 ng/mL) [1] | 1.88 | 0.96 | 5.1 | 6.24 | 28.9
KAI3 (IL-2 2.5 ng/mL) [12] | -3.52 | 1.05 | 2.47 | -3.92 | 11.8
KHYG-1 (IL-2 2.5 ng/mL) [9] | 1.01 | 1.23 | 3.87 | 2.07 | 14.3
NK-92 (IL-2 2.5 ng/mL) [3] | -8.34 | -11.4 | 3.46 | -6.86 | 24.2
NK-YS (IL-2 2.5 ng/mL) [6] | 0.04 | -3.4 | 4.58 | -1.43 | 25.9
NKL (IL-2 2.5 ng/mL) [13] | -6.3 | -1.48 | -3.38 | 1.11 | 28.3
SNK-6 (IL-2 2.5 ng/mL) [8] | 5.46 | -1.31 | -7.77 | 8.49 | 43.1
YT (IL-2 2.5 ng/mL) [2] | -1.09 | -0.73 | 1.54 | -7.45 | 15.8
[4] | -6.36 | 0.19 | 2.86 | -4.87 | 13.1
[7] | 1.89 | -6.6 | 3 | -20.1 | 3.21
[10] | 3.1 | -5.28 | -1.2 | -0.54 | 6.1
[11] | -14.4 | 0.63 | -2.21 | -3.15 | 4.77
[28] | -0.06 | 6.04 | 5.91 | 6.68 | 23.3

Settings | drug sensitivity score
DERL-7 (IL-2 2.5 ng/mL) [19] | 0.77
IMC-1 (IL-2 20 ng/mL) [15] | 2.14
KAI3 (IL-2 2.5 ng/mL) [26] | 0.01
KHYG-1 (IL-2 2.5 ng/mL) [23] | 0.37
NK-92 (IL-2 2.5 ng/mL) [17] | 0.62
NK-YS (IL-2 2.5 ng/mL) [20] | 0.91
NKL (IL-2 2.5 ng/mL) [27] | 1.32
SNK-6 (IL-2 2.5 ng/mL) [22] | 3.58
YT (IL-2 2.5 ng/mL) [16] | 0.14
[14] | 1.12
[18] | 0.04
[21] | 0
[24] | 0
[25] | 0
